Earlier results, collected in patent publication US6436417B1, “Acne treatment compositions” (Blistex Inc., priority 2001, dated 2002).

Columns and labels:
[1] = in sunlight and in the presence of ferric salts
[2] = not given; remark: listed apart in the source

Compound: O=C(O)c1ccccc1O [Salicylic acid, salicylic acid]
- stability to discoloration [1]: strong tendency to discolor
- pH of the aqueous solution (1 gram in about 460 ml of water at room temperature): 2.4
- solubility in water (volume of water dissolving 1 gram) (1 gram, water, room temperature): about 460 ml
- solubility in water (water, room temperature): about 0.2 % by weight
- solubility in alcohol (volume of alcohol dissolving 1 gram) [2]: about 2.7 ml
